Laboratory results reported in US9637491B2, “Pyrazolo[4,3-D]pyrimidines as kinase inhibitors” (Origenis GmbH, priority 2012, dated 2017).

Molecular target: T1, SYK kinase (Homo sapiens, UniProt P43405)
T1 construct: purchased Invitrogen, Carlsbad
Experiment: SYK assay (OMNIA Kinase Assay, Invitrogen)
Format: biochemical
Details: SYK Activities; 1 mM ATP, 10 μM Omnia Peptide Substrate Tyr 7, 30° C.
In short: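 Continuous-read fluorescence kinase assay: SOX-labelled Tyr 7 peptide (10 μM) with 1 mM ATP and 0.2 mM DTT, 30° C, reaction started by adding SYK. Fluorescence (ex 360/em 485 nm) read every 30 s for 30 min. IC50 from sigmoidal fit of reaction velocity versus inhibitor concentration.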

SMILES	IC50 [nM]
COc1ccc(Nc2nc(-c3c(F)cccc3Cl)nc3cn[nH]c23)cc1OC [Example 513, 5-(2-chloro-6-fluorophenyl)-N-(3,4-dimethoxyphenyl)-1H-pyrazolo[4,3-d]pyrimidin-7-amine]	100 to 1000
COc1cc(Nc2nc(-c3c(F)cccc3Cl)nc3cn[nH]c23)ccc1N1CCOCC1 [Example 514, 5-(2-chloro-6-fluorophenyl)-N-(3-methoxy-4-morpholinophenyl)-1H-pyrazolo[4,3-d]pyrimidin-7-amine]	10 to 100
c1ccc(Sc2ccc(Nc3nc(-c4ccc5cn[nH]c5c4)nc4cn[nH]c34)cc2)cc1 [Example 515, 5-(1H-indazol-6-yl)-N-(4-(phenylthio)phenyl)-1H-pyrazolo[4,3-d]pyrimidin-7-amine]	100 to 1000
O=C1CCCc2ccc(Nc3nc(-c4ccc5cn[nH]c5c4)nc4cn[nH]c34)cc2N1 [Example 516, 8-((5-(1H-indazol-6-yl)-1H-pyrazolo[4,3-d]pyrimidin-7-yl)amino)-4,5-dihydro-1H-benzo[b]azepin-2(3H)-one]	10 to 100
FC(F)(F)Cn1cc(Nc2nc(-c3ccc4cn[nH]c4c3)nc3cn[nH]c23)cn1 [Example 517, 5-(1H-indazol-6-yl)-N-(1-(2,2,2-trifluoroethyl)-1H-pyrazol-4-yl)-1H-pyrazolo[4,3-d]pyrimidin-7-amine]	10 to 100
O=C1COc2ccc(Nc3nc(-c4ccc5cn[nH]c5c4)nc4cn[nH]c34)cc2N1 [Example 519, 6-((5-(1H-indazol-6-yl)-1H-pyrazolo[4,3-d]pyrimidin-7-yl)amino)-2H-benzo[b][1,4]oxazin-3(4H)-one]	< 10
O=C1CSc2ccc(Nc3nc(-c4ccc5cn[nH]c5c4)nc4cn[nH]c34)cc2N1 [Example 520, 6-((5-(1H-indazol-6-yl)-1H-pyrazolo[4,3-d]pyrimidin-7-yl)amino)-2H-benzo[b][1,4]thiazin-3(4H)-one]	100 to 1000
O=C1CCCc2ccc(Nc3nc(-c4c(F)cccc4F)nc4cn[nH]c34)cc2N1 [Example 521, 8-((5-(2,6-difluorophenyl)-1H-pyrazolo[4,3-d]pyrimidin-7-yl)amino)-4,5-dihydro-1H-benzo[b]azepin-2(3H)-one]	100 to 1000
OC1CCN(c2ccc(Nc3nc(-c4c(F)cccc4F)nc4cn[nH]c34)cc2)CC1 [Example 522, 1-(4-((5-(2,6-difluorophenyl)-1H-pyrazolo[4,3-d]pyrimidin-7-yl)amino)phenyl)piperidin-4-ol]	10 to 100
COc1ccc(Nc2nc(-c3c(F)cccc3F)nc3cn[nH]c23)cc1NC(C)=O [Example 523, N-(5-((5-(2,6-difluorophenyl)-1H-pyrazolo[4,3-d]pyrimidin-7-yl)amino)-2-methoxyphenyl)acetamide]	100 to 1000
NS(=O)(=O)c1cccc(-c2nc(Nc3ccc4c(c3)NC(=O)CCC4)c3[nH]ncc3n2)c1 [Example 525, 3-(7-((2-oxo-2,3,4,5-tetrahydro-1H-benzo[b]azepin-8-yl)amino)-1H-pyrazolo[4,3-d]pyrimidin-5-yl)benzenesulfonamide]	10 to 100
NS(=O)(=O)c1cccc(-c2nc(Nc3cnn(CCO)c3)c3[nH]ncc3n2)c1 [Example 526, 3-(7-((1-(2-hydroxyethyl)-1H-pyrazol-4-yl)amino)-1H-pyrazolo[4,3-d]pyrimidin-5-yl)benzenesulfonamide]	10 to 100
CS(=O)(=O)Nc1cccc(-c2nc(Nc3ccc4c(c3)NC(=O)CCC4)c3[nH]ncc3n2)c1 [Example 529, N-(3-(7-((2-oxo-2,3,4,5-tetrahydro-1H-benzo[b]azepin-8-yl)amino)-1H-pyrazolo[4,3-d]pyrimidin-5-yl)phenyl)methanesulfonamide]	100 to 1000
Nc1cccc(-c2nc(Nc3cnn(C4CCOCC4)c3)c3[nH]ncc3n2)c1 [Example 530, 5-(3-aminophenyl)-N-(1-(tetrahydro-2H-pyran-4-yl)-1H-pyrazol-4-yl)-1H-pyrazolo[4,3-d]pyrimidin-7-amine]	10 to 100
Nc1ccccc1-c1nc(Nc2cnn(C3CCOCC3)c2)c2n[nH]cc2n1 [Example 531, 5-(2-aminophenyl)-N-(1-(tetrahydro-2H-pyran-4-yl)-1H-pyrazol-4-yl)-2H-pyrazolo[4,3-d]pyrimidin-7-amine]	100 to 1000
CN1CCC(n2cc(Nc3nc(-c4nccs4)nc4cn[nH]c34)cn2)CC1 [Example 535, N-(1-(1-methylpiperidin-4-yl)-1H-pyrazol-4-yl)-5-(thiazol-2-yl)-1H-pyrazolo[4,3-d]pyrimidin-7-amine]	10 to 100
CN1CCN(c2ccc(Nc3nc(-c4ccc5cn[nH]c5c4)nc4cn[nH]c34)cc2CO)CC1 [Example 536, (5-((5-(1H-indazol-6-yl)-1H-pyrazolo[4,3-d]pyrimidin-7-yl)amino)-2-(4-methylpiperazin-1-yl)phenyl)methanol]	< 10
Fc1cccc(F)c1-c1nc(Nc2ccc3c(c2)NCCO3)c2[nH]ncc2n1 [Example 537, N-(5-(2,6-difluorophenyl)-1H-pyrazolo[4,3-d]pyrimidin-7-yl)-3,4-dihydro-2H-benzo[b][1,4]oxazin-6-amine]	10 to 100
CC(=O)Nc1cc(Nc2nc(-c3c(F)cccc3F)nc3cn[nH]c23)ccc1N1CCN(C(C)=O)CC1 [Example 538, N-(2-(4-acetylpiperazin-1-yl)-5-((5-(2,6-difluorophenyl)-1H-pyrazolo[4,3-d]pyrimidin-7-yl)amino)phenyl)acetamide]	100 to 1000
CN1CCN(c2ccc(Nc3nc(-c4c(F)cccc4F)nc4cn[nH]c34)cc2Cl)CC1 [Example 539, N-(3-chloro-4-(4-methylpiperazin-1-yl)phenyl)-5-(2,6-difluorophenyl)-1H-pyrazolo[4,3-d]pyrimidin-7-amine]	10 to 100
Oc1c(Cl)cc(Nc2nc(-c3c(F)cccc3F)nc3cn[nH]c23)cc1Cl [Example 540, 2,6-dichloro-4-((5-(2,6-difluorophenyl)-1H-pyrazolo[4,3-d]pyrimidin-7-yl)amino)phenol]	10 to 100
